Reference: article PMC5321434, “Dihydrobenz[e][1,4]oxazepin-2(3H)-ones, a new anthelmintic chemotype immobilising whipworm and reducing infectivity in vivo” (PLoS Neglected Tropical Diseases, 2017)

System: adult T. muris
Assay: Ex vivo adult T. muris automated motility assay (primary/secondary screen at 100 μM and dose-response)
Design: species or system Trichuris muris
Details: 100 μM; for COMBINED_SCREEN_ACTIVITY: combined primary and secondary screen minus log fold change in movement, adult T. muris; for PRIMARY_SCREEN_MINUS_LOG_FOLD_CHANGE_MOVEMENT: primary screen; for PRIMARY_SCREEN_MINUS_LOG_FOLD_CHANGE_MOVEMENT / SECONDARY_SCREEN_MINUS_LOG_FOLD_CHANGE_MOVEMENT: adult T. muris motility; for SECONDARY_SCREEN_MINUS_LOG_FOLD_CHANGE_MOVEMENT: secondary screen
Protocol: Severe combined immune deficiency (SCID) mice were bred in the Biological Services Facility at the University of Manchester. Both male and female SCID mice were infected with a high dose of 200 infective embryonated T. muris eggs via oral gavage. At day 35 post-infection, groups of 5 mice were killed and their […] colons removed. Guts were opened longitudinally, washed with pre-warmed Roswell Park Memorial Institute (RPMI) 1640 media supplemented with penicillin (500U/ml) and streptomycin (500μg/ml) and adult T. muris worms gently removed using fine forceps. Worms removed from SCID mice were maintained in RPMI-1640 media supplemented with penicillin (500U/ml) and streptomycin (500μg/ml) at approximately 37°C and studied on the same day. Using fine forceps, individual live worms were placed into 96 well plates containing 75μl of RPMI-1640 medium supplemented with penicillin (500U/ml) and streptomycin (500μg/ml) plus 1% final concentration of DMSO or compound dissolved in DMSO. In the primary screen the test compound concentration was 100μM. Plates were then incubated at 37°C, 5% CO2, and motility was analysed after 24 hours. Worm movement was quantified using an automated motility assay. This system gives an estimate of worm movement in each well by thresholding and quantifying pixel intensity variance over time. An earlier version of this system has been previously described. One adult T. muris worm was used per well, with one well per compound in each replicate of the primary screen. The primary screen was repeated each week for a period of four weeks giving four independent biological replicates from separate parasite batches for each compound. Dose-response curves were calculated with the four factor log-logistic model using the R package drc. The primary screen was carried out at 100μM final concentration. Assay plates were assigned unique IDs and statistical analysis was performed without knowledge of compound identities using R scripts. Once hit wells were identified, well/plate positions were mapped to compound identities using DataWarrior [28]. […] Compounds identified as having encouraging activity from the DMSO solution samples were then resynthesized for confirmatory testing.

| Structure (SMILES) | COMBINED_SCREEN_ACTIVITY | PRIMARY_SCREEN_MINUS_LOG_FOLD_CHANGE_MOVEMENT | SECONDARY_SCREEN_MINUS_LOG_FOLD_CHANGE_MOVEMENT |
| --- | --- | --- | --- |
| O=C1COCc2ccc(-c3cccc(F)c3)cc2N1CCN1CCOCC1 [Compound 116] | 0.5451 | 0.5451 |  |
| O=C(O)c1cccc(-c2ccc3c(c2)N(Cc2ccccc2)C(=O)COC3)c1 [Compound 117] | -1.457 | -1.457 |  |
| COCc1cccc(-c2ccc3c(c2)N(Cc2ccccc2)C(=O)COC3)c1 [Compound 118] | 10.5493 | 10.5493 |  |
| COc1ccccc1-c1ccc2c(c1)COCC(=O)N2CCc1ccccc1 [Compound 119] | -0.8266 | -0.8266 |  |
| COc1ccccc1-c1ccc2c(c1)COCC(=O)N2Cc1ccc(C)cc1 [Compound 120] | -1.664 | -1.664 |  |
| COc1ccccc1-c1ccc2c(c1)N(CCc1ccccc1)C(=O)COC2 [Compound 121] | 1.0336 | 1.0336 |  |
| Cc1ccccc1CN1C(=O)COCc2ccc(-c3cccc(CO)c3)cc21 [Compound 122] | -0.2289 | -1.039 | 0.5816 |
| Cc1ccc(CN2C(=O)COCc3cc(-c4cccc(CO)c4)ccc32)cc1 [Compound 123] | -0.1619 | -0.1619 |  |
| O=C1COCc2cc(-c3ccncc3)ccc2N1Cc1ccc2c(c1)OCO2 [Compound 124] | 0.4678 | 0.4678 |  |
| O=C1COCc2cc(-c3cccnc3)ccc2N1Cc1ccc2c(c1)OCO2 [Compound 125] | -0.9605 | -0.9605 |  |
| COc1cccc(CN2C(=O)COCc3cc(-c4cccc(O)c4)ccc32)c1 [Compound 126] | 1.18 | 1.18 |  |
| Cn1cc(-c2ccc3c(c2)COCC(=O)N3Cc2ccc3c(c2)OCO3)cn1 [Compound 127] | 0.2993 | -0.5635 | 1.162 |
| COc1cc(F)ccc1-c1ccc2c(c1)COCC(=O)N2Cc1ccccc1 [Compound 128] | 3.2501 | 3.2501 |  |
| COc1ccc(F)cc1-c1ccc2c(c1)N(Cc1ccccc1)C(=O)COC2 [Compound 129] | 3.716 | 3.716 |  |
| COc1cccc(CN2C(=O)COCc3cc(-c4cccc(F)c4)ccc32)c1 [Compound 130] | 0.2069 | 0.2069 |  |
| COc1cccc(CN2C(=O)COCc3ccc(-c4cccc(F)c4)cc32)c1 [Compound 131] | -0.1165 | -0.1165 |  |
| N#Cc1cccc(-c2ccc3c(c2)N(CCN2CCOCC2)C(=O)COC3)c1 [Compound 132] | -2.183 | -2.183 |  |
| O=C1COCc2ccc(-c3cccc(O)c3)cc2N1Cc1ccccc1Cl [Compound 133] | -0.006244 | -0.006244 |  |
| Cc1ccc(-c2ccc3c(c2)N(CCN2CCOCC2)C(=O)COC3)cc1C [Compound 134] | -2.044 | -2.044 |  |
| COc1ccccc1-c1ccc2c(c1)COCC(=O)N2CCN1CCOCC1 [Compound 135] | -1.035 | -1.035 |  |
| COc1ccccc1-c1ccc2c(c1)N(CCN1CCOCC1)C(=O)COC2 [Compound 136] | -0.8162 | -0.8162 |  |
| CC(=O)Nc1cccc(-c2ccc3c(c2)N(Cc2ccccc2)C(=O)COC3)c1 [Compound 137] | 5.935 | 5.935 |  |
| O=C1COCc2cc(-c3cc(F)cc(F)c3)ccc2N1CCN1CCOCC1 [Compound 138] | -0.5965 | -0.5965 |  |
| O=C1COCc2ccc(-c3cc(F)cc(F)c3)cc2N1CCN1CCOCC1 [Compound 139] | -1.36 | -1.36 |  |
| O=C1COCc2cc(-c3cccc(O)c3)ccc2N1Cc1ccc2c(c1)OCO2 [Compound 140] | -0.481 | -0.481 |  |

| Structure (SMILES) | COMBINED_SCREEN_ACTIVITY | PRIMARY_SCREEN_MINUS_LOG_FOLD_CHANGE_MOVEMENT | SECONDARY_SCREEN_MINUS_LOG_FOLD_CHANGE_MOVEMENT |
| --- | --- | --- | --- |
| COc1cccc(CN2C(=O)COCc3cc(-c4ccccc4OC)ccc32)c1 [Compound 141] | -1.328 | -1.328 |  |
| COc1cccc(CN2C(=O)COCc3cc(-c4cccc(CO)c4)ccc32)c1 [Compound 142] | -0.6408 | -0.6408 |  |
| COc1cccc(CN2C(=O)COCc3cc(-c4ccc(OC)nc4)ccc32)c1 [Compound 143] | -1.1304 | -1.1304 |  |
| COc1cc(F)ccc1-c1ccc2c(c1)COCC(=O)N2CCc1ccccc1 [Compound 144] | -1.769 | -1.769 |  |
| COc1ccc(F)cc1-c1ccc2c(c1)COCC(=O)N2CCc1ccccc1 [Compound 145] | -1.739 | -1.739 |  |
| COc1cc(F)ccc1-c1ccc2c(c1)N(CCc1ccccc1)C(=O)COC2 [Compound 146] | -0.8154 | -0.8154 |  |
| COc1ccc(F)cc1-c1ccc2c(c1)N(CCc1ccccc1)C(=O)COC2 [Compound 147] | 0.4002 | 0.4002 |  |
| CC(=O)Nc1cccc(-c2ccc3c(c2)N(CC2CCCCC2)C(=O)COC3)c1 [Compound 149] | 6.083 | 10.5493 | 1.617 |
| COc1ccccc1-c1ccc2c(c1)COCC(=O)N2Cc1ccccc1Cl [Compound 150] | -1.328 | -1.328 |  |
| COc1ccccc1-c1ccc2c(c1)N(Cc1ccccc1Cl)C(=O)COC2 [Compound 151] | -1.249 | -1.249 |  |
| CC(C)c1cccc(-c2ccc3c(c2)N(CCN2CCOCC2)C(=O)COC3)c1 [Compound 152] | 5.995 | 5.995 |  |
| COc1ccc(-c2ccc3c(c2)N(Cc2ccccc2Cl)C(=O)COC3)cn1 [Compound 153] | 0.2455 | 0.2455 |  |
| O=C1COCc2cc(-c3cccc(CO)c3)ccc2N1Cc1cc(F)cc(F)c1 [Compound 154] | -1.197 | -1.197 |  |
| COc1ccccc1-c1ccc2c(c1)COCC(=O)N2Cc1cc(F)cc(F)c1 [Compound 155] | -0.9332 | -0.9332 |  |
| COc1ccc(-c2ccc3c(c2)N(Cc2cc(F)cc(F)c2)C(=O)COC3)cn1 [Compound 156] | -1.039 | -1.039 |  |
| COc1ccc(-c2ccc3c(c2)N(CCN2CCOCC2)C(=O)COC3)c(C)c1 [Compound 157] | -1.37 | -1.37 |  |
| COCc1cccc(-c2ccc3c(c2)N(CCN2CCOCC2)C(=O)COC3)c1 [Compound 158] | -1.5946 | -1.5946 |  |
| O=C1COCc2ccc(-c3cccnc3)cc2N1Cc1ccc(C(F)(F)F)cc1 [Compound 159] | 11.6591 | 10.6993 | 12.6188 |
| O=C1COCc2ccc(Br)cc2N1Cc1ccc(C(F)(F)F)cc1 [Compound 160] | 8.379 | 8.379 |  |
| COc1cc(F)ccc1-c1ccc2c(c1)COCC(=O)N2CCN1CCOCC1 [Compound 161] | -1.617 | -1.617 |  |
| COc1ccc(F)cc1-c1ccc2c(c1)N(CCN1CCOCC1)C(=O)COC2 [Compound 162] | -1.305 | -1.305 |  |
| COc1ccc(F)cc1-c1ccc2c(c1)COCC(=O)N2CCN1CCOCC1 [Compound 163] | -0.1485 | -0.1485 |  |
| CC(=O)Nc1cccc(-c2ccc3c(c2)N(CCc2ccccc2)C(=O)COC3)c1 [Compound 164] | 1.82 | 1.82 |  |
| Cn1cc(-c2ccc3c(c2)COCC(=O)N3Cc2ccc(C(F)(F)F)cc2)cn1 [Compound 165] | 10.5493 | 10.5493 |  |
